One experiment concerns MRSA. Nature of the experiment: Planktonic antibacterial broth microdilution assay. As to conditions: Staphylococcus aureus. On the technique in general: Dilution methods test growth across graded concentrations, often in twofold steps.
The target of experiment [1] is T1, Bacillus subtilis FtsZ (Bacillus subtilis, UniProt P17865). The experiment is described as follows: 90°-angle light scattering assay of FtsZ polymerization. In kind it is biochemical. As to conditions: compound 40 μM; for Maximal Light Scattering: readout of extent of polymerization, no compound: 3.40; for Time to Reach Half-Maximal Light Scattering: readout of rate of polymerization, no compound: 91.6. Here is the method: B[c]P inhibition of FtsZ polymerization can be tested using a 90°-angle light scattering assay for monitoring drug impact on FtsZ polymerization. This assay is premised on the increased light scattering properties of polymeric FtsZ relative to the monomeric form of the protein. To this end, the light scattering at 600 nm of 5 μM FtsZ is continuously monitored under polymerization conditions in the absence or presence of a B[c]P compound at concentrations ranging from 40 to 80 μM.
T1 sequence (P17865 whole entry): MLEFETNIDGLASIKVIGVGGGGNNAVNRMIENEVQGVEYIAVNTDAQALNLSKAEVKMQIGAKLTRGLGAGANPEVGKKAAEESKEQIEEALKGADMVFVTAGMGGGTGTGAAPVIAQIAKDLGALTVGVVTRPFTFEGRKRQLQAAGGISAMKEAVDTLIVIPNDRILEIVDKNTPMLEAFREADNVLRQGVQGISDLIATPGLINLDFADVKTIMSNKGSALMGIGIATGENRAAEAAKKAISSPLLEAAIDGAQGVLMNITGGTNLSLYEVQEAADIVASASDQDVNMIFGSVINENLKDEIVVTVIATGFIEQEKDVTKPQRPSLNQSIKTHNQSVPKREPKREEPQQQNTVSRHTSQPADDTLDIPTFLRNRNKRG
Polymerization is initiated by addition of 0.5 mM GTP. The rate and extent of FtsZ polymerization can be quantified by analyzing the light scattering profiles to derive maximal light scattering values (which provide a readout of the extent of polymerization) as well as the times required to reach half-maximal light scattering values (which provide a readout of the rate of polymerization).

Another experiment relates to Staphylococcus aureus. The experiment is described as follows: Planktonic antibacterial broth microdilution assay. In kind it is cell-based. The settings on record: 24 hours continuous drug exposure.
Experiment [2] relates to Mycobacterium tuberculosis. Nature of the experiment: Planktonic antibacterial broth microdilution assay. In kind it is cell-based. As to conditions: 24 hours continuous drug exposure.
A further experiment deals with Enterococcus faecalis. Nature of the experiment: Planktonic antibacterial broth microdilution assay. The settings on record: 24 hours continuous drug exposure. It counts as cell-based.
For a further experiment, the system named is Bacillus subtilis. The experiment is described as follows: Planktonic antibacterial broth microdilution assay. It counts as cell-based. As to conditions: 24 hours continuous drug exposure.
In experiment [3] the target is T1, Bacillus subtilis FtsZ. The experiment is described as follows: Fluorescence-based competition binding assay (displacement of BODIPY-GTPγS from FtsZ). As to conditions: FIG. 8; reduction reflects binding to FtsZ and release of BODIPY-GTPγS. From the text:
B[c]P binding to FtsZ can be tested using a fluorescence-based competition binding assay using purified FtsZ and a commercially available GTPγS analog where the nucleotide is covalently conjugated via its sulfur atom to the fluorescent dye BODIPY (DIPYrromethene BOron difluoride). Upon binding to FtsZ, BODIPY-GTPγS undergoes a dramatic increase in fluorescence emission intensity (I) at 510 nm. This binding-induced change in BODIPY-GTPγS fluorescence provides the dissociation constant (Kd-GTP) of the nucleotide for the protein through analysis of fluorescence titration profiles with the following formalism, which is predicated on a one-to-one binding stoichiometry:
[formula] I0 and I are the fluorescence emission intensities of BODIPY-GTPγS in the absence and presence of a given FtsZ concentration, respectively, I∞ is the fluorescence emission intensity of BODIPY-GTPγS in the presence of an infinite FtsZ concentration, and [GTP]tot and [FtsZ]tot are the total concentrations of BODIPY-GTPγS and FtsZ, respectively. […]
I0 and I are the fluorescence emission intensities of the FtsZ-BODIPY-GTPγS complex in the absence and presence of a given compound concentration, respectively, I∞ is the fluorescence emission intensity of the FtsZ-BODIPY-GTPγS complex in the presence of infinite compound concentration, [Compd]tot is the total compound concentration, and p is the Hill slope. […]

Data on 27 compounds can be found in patent US8741917B2, “Benzo [C] phenanthridines as antimicrobial agents” (Rutgers, The State University of New Jersey, priority 2009, dated 2014).

Like-named read-outs stand apart in the source and are kept apart here. Bounds are passed on as bounds.

Usually MIC stands for the lowest concentration found to suppress growth. For `COc1ccc2c(c1OC)C(N)N(C)c1c-2ccc2c(-c3ccc(-c4ccccc4)cc3)c(OC)c(OC)cc12` (stereo not drawn) [Example 24], the minimal inhibitory concentration (MIC) in the experiment with MRSA (read-out: MIC vs. MRSA) was under 16 µg/mL.

For the compound `COc1cc2ccc3c4ccc(OC)c(OC)c4c[n+](C)c3c2cc1OC` [Comparative Example 2, reference compound], the MIC with MRSA (read-out: MIC vs. MRSA) amounted to 64 µg/mL. The same measure, in the same setting: the result for `COc1cc2c(ccc3c4ccc5c(c4c[n+](C)c23)OCO5)c(-c2ccccc2)c1OC` [Example 4] reads under 16 µg/mL; that for `COc1ccc2c(c1OC)CN(C)c1c-2ccc2c(-c3ccc(-c4ccccc4)cc3)c(OC)c(OC)cc12` [Example 20], under 16 µg/mL. Consider `COc1ccc2c(c[n+](C)c3c4cc5c(cc4ccc23)OCO5)c1OC` [Chelerythrine], for which the “Maximal Light Scattering” value on Bacillus subtilis FtsZ [1] was 2.83 a.u. Further, the “Time to Reach Half-Maximal Light Scattering” value at Bacillus subtilis FtsZ [1] was determined as 205.3 s. Moreover, the minimum inhibitory concentration (MIC) with Staphylococcus aureus was found to be 8 µg/mL; in experiment [2], 8 µg/mL; with Enterococcus faecalis it was 32 µg/mL; in the experiment with Bacillus subtilis, 4 µg/mL; with MRSA (24 h, read-out: MRSA MIC), 16 µg/mL. Take `C[n+]1cc2c3c(ccc2c2ccc4cc5c(cc4c21)OCO5)OCO3` [Sanguinarine]: the MIC came to 8 µg/mL in the experiment with Staphylococcus aureus; 8 µg/mL in experiment [2]; 32 µg/mL with Enterococcus faecalis; 4 µg/mL with Bacillus subtilis; 16 µg/mL with MRSA (24 h, read-out: MRSA MIC). For `COc1cc(-c2c(OC)c(OC)cc3c2ccc2c4ccc(OC)c(OC)c4c[n+](C)c32)cc(OC)c1OC` [Example 15], the MIC in the experiment with MRSA (read-out: MIC vs. MRSA) is under 16 µg/mL.

With `COc1cc2c(-c3ccc(-c4ccccc4)cc3)cc3c4ccc(OC)c(OC)c4c[n+](C)c3c2cc1OC` [Example 23], the MIC with MRSA (read-out: MIC vs. MRSA) was under 16 µg/mL.

On to `COc1cc2c(ccc3c4ccc(OC)c(OC)c4c[n+](C)c23)c(-c2cccnc2)c1OC` [Example 22], for which the minimum inhibitory concentration (MIC) in the experiment on MRSA (read-out: MIC vs. MRSA) is under 16 µg/mL.

With `COc1cc2c(ccc3c4ccc(OC)c(OC)c4c[n+](C)c23)c(-c2ccccc2)c1OC` [Example 12], in the experiment with MRSA (read-out: MIC vs. MRSA), the minimum inhibitory concentration (MIC) is under 16 µg/mL.

`COc1cc2c(ccc3c4ccc(OC)c(OC)c4c[n+](C)c23)c(-c2ccc(-c3ccccc3)cc2)c1OC` [Example 7]: the MIC in the experiment on MRSA (read-out: MIC vs. MRSA) was under 16 µg/mL. As for `COc1cc2c(-c3ccc(-c4ccccc4)cc3)cc3c4ccc5c(c4c[n+](C)c3c2cc1OC)OCO5` [Example 13], the MIC with MRSA (read-out: MIC vs. MRSA) was under 16 µg/mL. For `COc1cc2c(ccc3c4ccc(OC)c(OC)c4c[n+](C)c23)c(-c2ccc(CCN3CCOCC3)cc2)c1OC` [Example 19], the minimal inhibitory concentration (MIC) in the experiment with MRSA (read-out: MIC vs. MRSA) is under 16 µg/mL. For the compound `COc1ccc2c(c1OC)CN(C)c1c-2ccc2c(C3CC3)c(OC)c(OC)cc12` [Example 21], the MIC in the experiment on MRSA (read-out: MIC vs. MRSA) is under 16 µg/mL. With `COc1cc2c(ccc3c4ccc(OC)c(OC)c4c[n+](C)c23)c(-c2ccc(S(=O)(=O)N(C)C)cc2)c1OC` [Example 18], in the experiment with MRSA (read-out: MIC vs. MRSA), the minimal inhibitory concentration (MIC) is under 16 µg/mL.

Regarding `COc1cc2c(ccc3c4ccc(OC)c(OC(C)C)c4c[n+](C)c23)c(-c2ccccc2)c1OC` [Example 8], the MIC in the experiment with MRSA (read-out: MIC vs. MRSA) was under 16 µg/mL. Still for that read-out and setting: in the case of `COc1cc2c(ccc3c4ccc(OC)c(OC)c4c[n+](C)c23)c(-c2ccc(N(C)C)cc2)c1OC` [Example 16] it was under 16 µg/mL. `COc1ccc2c(c1OC)C(OC)N(C)c1c-2ccc2c(-c3ccc(-c4ccccc4)cc3)c(OC)c(OC)cc12` (stereo not drawn) [Example 25]: the MIC with MRSA (read-out: MIC vs. MRSA) is under 16 µg/mL. Consider `COc1cc2c(ccc3c4ccc(OC)c(OC)c4c[n+](C)c23)c(C2CC2)c1OC` [Example 11], for which, in the experiment with MRSA (read-out: MIC vs. MRSA), the MIC is under 16 µg/mL. For the compound `COc1cc2c(-c3ccccc3)cc3c4ccc(OC)c(OC)c4c[n+](C)c3c2cc1OC` [Example 14], the minimal inhibitory concentration (MIC) in the experiment with MRSA (read-out: MIC vs. MRSA) was under 16 µg/mL. On to `COc1cc2c(ccc3c4ccc(OC)c(OC)c4c[n+](C)c23)c(C2=CCCCC2)c1OC` [Example 9], for which the MIC in the experiment on MRSA (read-out: MIC vs. MRSA) was under 16 µg/mL. With `COc1cc2c(ccc3c4ccc5c(c4c[n+](C)c23)OCO5)c(Cc2ccccc2)c1OC` [Example 5], in the experiment with MRSA (read-out: MIC vs. MRSA), the MIC is under 16 µg/mL. Consider `COc1cc2c(ccc3c4ccc5c(c4c[n+](C)c23)OCO5)c(-c2ccc(-c3ccccc3)cc2)c1OC` [Example 3, 8-Biphenyl-4-yl-9,10-dimethoxy-12-methyl-1,3-dioxa-12-azoniacyclopenta[a]chrysene chloride], for which the “Maximal Light Scattering” value at Bacillus subtilis FtsZ [1] was found to be 1.76 a.u. In addition, the “Time to Reach Half-Maximal Light Scattering” value at Bacillus subtilis FtsZ [1] came to 600.5 s. In addition, the minimum inhibitory concentration (MIC) against Staphylococcus aureus is 2 µg/mL; in experiment [2] it was 4 µg/mL; against Enterococcus faecalis, 16 µg/mL; in the experiment on Bacillus subtilis, 2 µg/mL; with MRSA (24 h, read-out: MRSA MIC), 8 µg/mL; in the experiment with MRSA (read-out: MIC vs. MRSA) it was under 16 µg/mL. The “fluorescence of FtsZ-bound BODIPY-GTPγS upon addition of compound” value at Bacillus subtilis FtsZ [3] is “decreases”. Take `COc1cc2c(ccc3c4ccc(OC)c(OC)c4c[n+](C)c23)c(-c2ccoc2)c1OC` [Example 17]: in the experiment on MRSA (read-out: MIC vs. MRSA), the MIC is under 16 µg/mL.

Turning to `COc1cc2ccc3c4ccc5c(c4c[n+](C)c3c2cc1OC)OCO5` [Comparative Example 1, reference compound], the MIC in the experiment on MRSA (read-out: MIC vs. MRSA) came to 32 µg/mL.

As to `COc1cc2c(ccc3c4ccc(OC)c(OC)c4c[n+](C)c23)c(C2CCCCC2)c1OC` [Example 10], the minimum inhibitory concentration (MIC) with MRSA (read-out: MIC vs. MRSA) is under 16 µg/mL. On to `COc1ccc(-c2c(OC)c(OC)cc3c2ccc2c4ccc5c(c4c[n+](C)c32)OCO5)cc1` [Example 6], for which, in the experiment with MRSA (read-out: MIC vs. MRSA), the MIC was under 16 µg/mL.
